pIC50: −log10 of the molar value. Like-named read-outs stand apart in the source and are kept apart here.
Tests used:
mTOR = target: T1, mTOR (Homo sapiens, UniProt P42345); assay: Biochemical assay for m-TOR by TR-FRET
T1 construct: purchased Invitrogen Corporation (Carlsbad/Calif., USA) PV4753
How it was run: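 mTOR (0.5 nM) phosphorylates GFP-4EBP1 (400 nM) with 8 μM ATP at rt in 50 mM HEPES pH 7.5, 10 mM MnCl2, 50 mM NaCl, 1 mM EGTA, 1 mM DTT; compounds 0.003–10 μM final. EDTA stop with Tb-anti-p4EBP1[pT46] antibody (0.5 nM); TR-FRET read after 15 min against no-enzyme and vehicle controls.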

[1] = system: PKB Ser473 phosphorylation in Rat1-myr-HA-p110 beta cells; assay: Reverse protein array, PKB Ser473 phosphorylation in Rat1-myr-HA-p110 beta cells; type: cell-based; details: Rattus norvegicus, 0.5 h, 30 minutes compound incubation, read-out: p-PKB/IC50_beta
[2] = Parallel Artificial Membrane Permeability Assay (PAMPA) at pH 6.8; type: physicochemical
How it was run: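 Reported as log Pe, membrane permeability was determined by parallel artificial membrane assay at pH 6.8 per Wohnsland–Faller.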

T1 sequence (P42345 1360-2549 limits assumed): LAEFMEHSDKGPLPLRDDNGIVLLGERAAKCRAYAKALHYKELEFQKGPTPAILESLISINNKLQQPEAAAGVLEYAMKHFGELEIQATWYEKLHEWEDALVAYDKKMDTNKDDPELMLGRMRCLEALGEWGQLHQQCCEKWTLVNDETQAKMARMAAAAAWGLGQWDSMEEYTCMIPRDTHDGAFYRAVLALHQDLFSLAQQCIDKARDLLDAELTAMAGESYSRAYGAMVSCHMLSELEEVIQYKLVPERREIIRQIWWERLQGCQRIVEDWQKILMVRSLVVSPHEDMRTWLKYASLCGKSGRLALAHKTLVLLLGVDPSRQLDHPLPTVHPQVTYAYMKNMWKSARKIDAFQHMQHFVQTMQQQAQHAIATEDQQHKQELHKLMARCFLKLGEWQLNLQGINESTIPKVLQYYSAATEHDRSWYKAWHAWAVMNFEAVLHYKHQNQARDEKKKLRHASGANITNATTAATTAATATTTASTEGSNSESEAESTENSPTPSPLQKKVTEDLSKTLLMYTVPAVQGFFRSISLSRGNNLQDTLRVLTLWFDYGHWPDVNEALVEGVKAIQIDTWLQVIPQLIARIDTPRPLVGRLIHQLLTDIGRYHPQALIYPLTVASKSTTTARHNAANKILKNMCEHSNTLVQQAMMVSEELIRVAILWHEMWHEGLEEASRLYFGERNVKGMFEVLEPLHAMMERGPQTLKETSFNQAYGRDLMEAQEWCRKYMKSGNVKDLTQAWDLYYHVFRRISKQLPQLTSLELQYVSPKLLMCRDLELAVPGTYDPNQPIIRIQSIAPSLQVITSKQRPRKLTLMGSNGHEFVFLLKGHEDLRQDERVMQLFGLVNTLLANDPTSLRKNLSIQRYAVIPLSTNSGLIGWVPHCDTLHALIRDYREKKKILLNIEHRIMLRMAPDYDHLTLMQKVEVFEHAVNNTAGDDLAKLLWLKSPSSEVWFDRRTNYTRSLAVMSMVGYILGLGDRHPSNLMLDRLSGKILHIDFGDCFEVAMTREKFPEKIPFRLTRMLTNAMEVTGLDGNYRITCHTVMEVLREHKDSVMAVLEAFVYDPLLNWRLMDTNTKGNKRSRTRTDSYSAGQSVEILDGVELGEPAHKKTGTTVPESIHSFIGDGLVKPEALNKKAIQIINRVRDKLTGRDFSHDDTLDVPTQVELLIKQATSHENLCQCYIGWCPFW

SMILES | pIC50 (mTOR; read-out: EPK_mTOR/IC50) | pIC50 [1] | HT-Perm logPe pH6.8 [2] | pIC50 (mTOR; read-out: mTOR/IC50) | HT-perm/logPe pH6.8 [2]
CCNc1cc(-c2ccc3ncc4c(c3c2)n(-c2ccc(N(C)CCOC)nc2C)c(=O)n4C)cnc1C [Example 15.6, 8-(5-Ethylamino-6-methyl-pyridin-3-yl)-1-{6-[(2-methoxy-ethyl)-methyl-amino]-2-methyl-pyridin-3-yl}-3-methyl-1,3-dihydro-imidazo[4,5-c]quinolin-2-one] | 8.22 | 8.15 | −3.6 | – | –
COCc1ncc(-c2ccc3ncc4c(c3c2)n(-c2ccc(OC)nc2OC)c(=O)n4C)cc1OC [Example 8.12, 1-(2,6-Dimethoxy-pyridin-3-yl)-8-(5-methoxy-6-methoxymethyl-pyridin-3-yl)-3-methyl-1,3-dihydro-imidazo[4,5-c]quinolin-2-one] | 7.77 | 7.09 | −4 | – | –
CCOc1ccc(-c2ccc3ncc4c(c3c2)n(-c2ccc(N(C)CCOC)nc2C)c(=O)n4C)cn1 [Example 15.3, 8-(6-Ethoxy-pyridin-3-yl)-1-{6-[(2-methoxy-ethyl)-methyl-amino]-2-methyl-pyridin-3-yl}-3-methyl-1,3-dihydro-imidazo[4,5-c]quinolin-2-one] | 6.92 | 7.55 | −3.8 | – | –
CNc1ccc(-c2ccc3ncc4c(c3c2)n(-c2cccnc2OC)c(=O)n4C)cn1 [Example 1.4, 1-(2-Methoxy-pyridin-3-yl)-3-methyl-8-(6-methylamino-pyridin-3-yl)-1,3-dihydro-imidazo[4,5-c]quinolin-2-one] | – | 8.01 | – | 7.60 | −3.9
CCOc1ccc(-c2ccc3ncc4c(c3c2)n(-c2cncc(C)c2)c(=O)n4C)cn1 [Example 17.1, 8-(6-Ethoxy-pyridin-3-yl)-3-methyl-1-(5-methyl-pyridin-3-yl)-1,3-dihydro-imidazo[4,5-c]quinolin-2-one] | 6.32 | 6.69 | −4.5 | – | –

Next, values leading:

pIC50 (mTOR; read-out: EPK_mTOR/IC50) | pIC50 [1] | HT-Perm logPe pH6.8 [2] | pIC50 (mTOR; read-out: mTOR/IC50) | HT-perm/logPe pH6.8 [2] | SMILES
7.17 | 7.55 | −4.3 | – | – | Cc1nc(N2CC(F)(F)C(F)(F)C2)ccc1-n1c(=O)n(C)c2cnc3ccc(-c4cncc(C(C)(C)O)c4)cc3c21 [Example 35.1, 8-[5-(1-Hydroxy-1-methyl-ethyl)-pyridin-3-yl]-3-methyl-1-[2-methyl-6-(3,3,4,4-tetrafluoro-pyrrolidin-1-yl)-pyridin-3-yl]-1,3-dihydro-imidazo[4,5-c]quinolin-2-one]
8.00 | > 8.34 | −4.1 | – | – | CCN(C)c1ccc(-n2c(=O)n(C)c3cnc4ccc(-c5ccc(NC)nc5)cc4c32)c(C)n1 [Example 12.1, 1-[6-(Ethyl-methyl-amino)-2-methyl-pyridin-3-yl]-3-methyl-8-(6-methylamino-pyridin-3-yl)-1,3-dihydro-imidazo[4,5-c]quinolin-2-one]
8.15 | 6.77 | −6.1 | – | – | COCC(=O)Nc1ccc(-n2c(=O)n(C)c3cnc4ccc(-c5cncc(N)c5)cc4c32)c(C)n1 [Example 20.1, N-{5-[8-(5-Amino-pyridin-3-yl)-3-methyl-2-oxo-2,3-dihydro-imidazo[4,5-c]quinolin-1-yl]-6-methyl-pyridin-2-yl}-2-methoxy-acetamide]
6.96 | 7.63 | −6 | – | – | Cc1nc(F)ccc1-n1c(=O)n(C)c2cnc3ccc(-c4cncc(N)c4)cc3c21 [Example 7.16, 8-(5-Amino-pyridin-3-yl)-1-(6-fluoro-2-methyl-pyridin-3-yl)-3-methyl-1,3-dihydro-imidazo[4,5-c]quinolin-2-one]
8.10 | 8.21 | −4 | – | – | COCCN(C)c1ccc(-n2c(=O)n(C)c3cnc4ccc(-c5cnc(N)c(C(F)(F)F)c5)cc4c32)c(C)n1 [Example 15.1, 8-(6-Amino-5-trifluoromethyl-pyridin-3-yl)-1-{6-[(2-methoxy-ethyl)-methyl-amino]-2-methyl-pyridin-3-yl}-3-methyl-1,3-dihydro-imidazo[4,5-c]quinolin-2-one]

Source: patent publication US20100311714A1, “1H-IMIDAZO[4,5-c]QUINOLINONE COMPOUNDS” (priority 2009, published 2010)
